Values of other authors in US12595109B2, “Device to release water and antimicrobial vapor into an enclosed or partially enclosed space” (Arkema Inc., priority 2020, dated 2026).
Where two headings read alike, the source gives them in different places.

Key:
[1] = test system: Bacillus subtilis (Spores)
[2] = test system: Geobacillus stearothermophilus; details: biological indicator, 2 mg/L gaseous H2O2
[3] = test system: Clostridium sporogenes (Spores)
[4] = Liquid solution of H2O2, c(H2O2) = 370 mg l^−1, T = 24-25° C.
[5] = VPHP, c(H2O2) = 1-2 mg l^−1, T = 24-25° C.

OO [hydrogen peroxide]
D-value [1, 4]: 2.0 to 7.3 min | D-value [1, 5]: 0.5 to 1 min | D-value (Bacillus (Spores); [4]): 1.5 min | D-value (Bacillus (Spores); [5]): 1 to 2 min | D-value [2]: 0.8 min | maximum exposure (ACGIH, 5 times the TLV-TWA): no more than 5 ppm | TLV (ACGIH, 8 hour TWA): 1 ppm | STEL (United Kingdom and some other countries): 2 ppm | Short Term Exposures (STELs) (Washington and Hawaii): 3 ppm | D-value [3, 4]: 0.8 min | D-value [3, 5]: 0.5 to 1 min
